Experiments:
Caco-2 cells = experiment: Caco-2 BCFA uptake experiment (18 h incubation, GC/MS of cell lipids); format: in vitro ADME, human; details: BCFA-treated Caco-2 cells
Procedure: Twenty-four hours prior to treatment with BCFA, DMEM was replaced with MEM (Minimum Essential Medium). […] Two others served as controls. Cells were incubated for 18 hours, after which media was removed and the cells were thoroughly and carefully washed three times. Cell lipids were extracted and FAME prepared for GC/MS.

Bacillus megaterium = details: LL-37 mixed in a ratio of 3:1 with vernix lipids; cited from earlier work

| Compound | incorporation of BCFA into monoacylglycerols (MAG) (Caco-2 cells; MAG fraction) | incorporation of BCFA into phospholipids (PL) (Caco-2 cells; PL fraction) | growth of Bacillus megaterium, peptide mixed with vernix lipids (Bacillus megaterium) |
| --- | --- | --- | --- |
| CC(C)CCCCCCCCCCCCCCCCC(=O)O [iso-20:0, iso-eicosanoic acid] | favoring | selection against |  |
| LL-37: antimicrobial vernix peptide (LLGDFFRKSKEKIGKEFKRIVQRIKDFLRNLVPRTES; Antibacterial peptide LL-37; UniProt P49913 134-170, looked up) |  |  | further growth inhibition |
